Reference: patent US9670514B2, “Method for producing polysaccharide” (SANYO CHEMICAL INDUSTRIES, LTD., priority 2011, dated 2017)

Key:
chondroitin synthase = target: T1, chondroitin synthase (Pasteurella multocida, UniProt Q9CMP0); test: Inhibitory concentration IC50 against chondroitin synthase; format: biochemical
T1 construct: FLAG; made in house; host or cells: Escherichia coli SURE, as in Preparation 1
Protocol: Hyaluronan synthase aqueous solution (B-1) obtained in Preparation 1 was dissolved to a concentration of 1.5 U/mL in 940 μL of aqueous solution 1 (50 mM phosphate buffer (pH of 7.5, 25° C.) containing 5 mM magnesium chloride and 0.05 mM sodium uridine diphosphate) in a 1.5 mL-tube. The tube was allowed to stand at 40° C. for 20 minutes in a constant temperature water bath. To the tube was added 50 μL of temperature-adjusted (40° C.) substrate solution [1-1] (a solution obtained by dissolving uridine diphosphate-glucuronic acid sodium salt and uridine diphosphate-N-acetylglucosamine both to a concentration of 20 mM in buffer solution B (50 mM phosphate buffer, pH of 7.5, 25° C.)). Thereby, enzyme reaction solution (I-1) was obtained. […] The supernatant (80 μL) was analyzed by HPLC under the following conditions, and the peak areas of hyaluronan were recorded. […]
The inhibitory concentration IC50 was measured in a similar manner as in “Measurement of the inhibitory concentration IC50 against hyaluronan synthase”, except that “chondroitin synthase aqueous solution (B-2) obtained in Preparation 11” was used in place of “hyaluronan synthase aqueous solution (B-1) obtained in Preparation 1”, “substrate solution [1-2] […]
The inhibitory concentration IC50 was also determined in a similar manner, except that the amount of chondroitin synthase aqueous solution (B-2) was changed from 1.5 U/mL to 45 U/mL.

hyaluronan synthase = target: T2, hyaluronan synthase (Streptococcus pyogenes, UniProt P0C0H0, K60N); test: Inhibitory concentration IC50 of uridine diphosphate against hyaluronan synthase (HPLC of hyaluronan); format: biochemical, Streptococcus equisimilis; settings: hyaluronan synthase (B-1) 1.5 U/mL, 40° C., pH 7.5
T2 construct: FLAG; made in house; host or cells: Escherichia coli SURE, plasmid pKK223-3
T2 sequence (P0C0H0 1-419 K60N): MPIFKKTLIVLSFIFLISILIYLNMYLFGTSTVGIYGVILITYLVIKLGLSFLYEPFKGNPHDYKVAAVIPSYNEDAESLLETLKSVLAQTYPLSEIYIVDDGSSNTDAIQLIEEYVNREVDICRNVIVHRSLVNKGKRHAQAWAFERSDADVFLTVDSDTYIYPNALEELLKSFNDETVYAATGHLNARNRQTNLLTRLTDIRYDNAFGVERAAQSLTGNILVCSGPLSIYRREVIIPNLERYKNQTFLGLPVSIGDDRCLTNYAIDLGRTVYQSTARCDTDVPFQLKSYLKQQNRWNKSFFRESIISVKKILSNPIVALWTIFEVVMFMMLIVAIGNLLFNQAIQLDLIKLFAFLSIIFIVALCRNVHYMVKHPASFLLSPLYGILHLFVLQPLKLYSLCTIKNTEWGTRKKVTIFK
Protocol: An enzyme reaction solution (I) containing specific amounts of polysaccharide synthase (B), ribonucleoside diphosphate-monosaccharide (A), ribonucleoside diphosphate, pH adjuster (K), and water is prepared, which is adjusted to a specific temperature and a specific pH. […]
A portion (e.g., 100 μL) of the enzyme reaction solution (I) prepared is extracted immediately after preparation and at certain time intervals (e.g., 5 min). […] Using liquid chromatography (hereinafter abbreviated as HPLC), the amount of polysaccharide in each extracted reaction solution is quantitated. An initial enzyme reaction velocity v (M/s) is calculated from the difference ΔP (ΔP=Ph−P0) in peak areas and a calibration curve based on the peak areas of the polysaccharide, wherein P0 is the peak area immediately after preparation of the enzyme reaction solution (I), and Ph is the peak area after h hour(s) from preparation. […]

O=c1ccn([C@@H]2O[C@H](COP(=O)(O)OP(=O)(O)O)[C@@H](O)[C@H]2O)c(=O)[nH]1 [uridine diphosphate]
IC50 (chondroitin synthase): 85 µM | IC50 (hyaluronan synthase): 110 µM
